These results are taken from the supplement of paper PMC11208160.

The data set in a line: recombinant barcode read abundance after kanamycin selection (control-corrected) (log10(CPM+1)); higher = more efficient recombination; sequences stand for … in AGTGCAGAGAAAATCGGCCAGTTTTCTCTGCCTGCAGTCCGCATGCCGT…AGATTTATGCAGCGGACTGCCTTTCTCCCAAAGTGATAAACCGGACAGTATCATGGACCGGTTTTCCCGGTAATCCGTATTTGCAAGGTTGGTTTCACT; site = the 11-nt target. As for the experimental part: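 Pooled E. coli target-specificity screen for the IS621 bridge recombinase. Each library plasmid pairs an 11-nt target (CT core) with a bridge RNA whose target-binding loop (9-nt LTG + 4-nt RTG) is reprogrammed; the rest of the 177-nt WT IS621 bridge RNA scaffold is fixed. The plasmid is co-electroporated with a WT donor plasmid; recombinase is induced with 0.1 mM IPTG and recombinants are selected on kanamycin. Recombinant barcodes are sequenced, converted to CPM, averaged over two biological replicates and corrected by the unselected control CPM. Molecule = full bridge RNA written as DNA: LTG = specificity nt 1-9, RTG = reverse complement of specificity nt 8-11, in the WT scaffold.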
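Also: IS621 recombinase and bridge RNA in Escherichia coli cells.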

Turning to “ACAACCTCTTGGGTTCTAACCTGTTGCCG (site TAGGGTACTGC)”, the “recombinant barcode read abundance (log10)” value was found to be 0.

Consider “ACAAGCACTTGGGTTCTAACCTGTTGCCT (site ACAAGCACTAG)”, for which the “recombinant barcode read abundance (log10)” value stood at 1.46.

For the sequence “ACAAGCACTTGGGTTCTAACCTGTTGCCT (site ACCATCACTAG)”, the “recombinant barcode read abundance (log10)” value stood at 0.2.

Consider “ACAAGGGCTTGGGTTCTAACCTGTTGCCT (site ACAAAGACTAG)”, for which the “recombinant barcode read abundance (log10)” value came to 0.261.

Regarding “ACAAGGGCTTGGGTTCTAACCTGTTGCCT (site ACAAGGGCTAG)”, the “recombinant barcode read abundance (log10)” value amounted to 0.547.

Regarding “ACAAGTCCTTGGGTTCTAACCTGTTGCGG (site ACAAGTCCTCC)”, the “recombinant barcode read abundance (log10)” value came out at 1.74.

Consider “ACAAGTCCTTGGGTTCTAACCTGTTGCGG (site ATAAGTCCTTC)”, for which the “recombinant barcode read abundance (log10)” value is 0.0466.

On to “ACAATGTCTTGGGTTCTAACCTGTTGCGG (site ACAATGTCTCC)”, for which the “recombinant barcode read abundance (log10)” value amounted to 1.27.

“ACAATGTCTTGGGTTCTAACCTGTTGCGG (site ACACTGTCTCC)”: the “recombinant barcode read abundance (log10)” value stood at 0.148.

“ACAATGTCTTGGGTTCTAACCTGTTGCGG (site ACAGTGTCTCC)”: the “recombinant barcode read abundance (log10)” value was 0.192.

With “ACAATGTCTTGGGTTCTAACCTGTTGCGG (site ACATTGTCTCC)”, the “recombinant barcode read abundance (log10)” value turned out to be 0.427.

Take “ACACACTCTTGGGTTCTAACCTGTTGCTG (site ACACACTCTCA)”: the “recombinant barcode read abundance (log10)” value worked out at 1.97.

Consider “ACACACTCTTGGGTTCTAACCTGTTGCTG (site ACACTCCCTCA)”, for which the “recombinant barcode read abundance (log10)” value was 0.0463.

With “ACACCACCTTGGGTTCTAACCTGTTGCCT (site AAACCACCTAG)”, the “recombinant barcode read abundance (log10)” value is 0.585.

With “ACACCACCTTGGGTTCTAACCTGTTGCCT (site ACACCACCTAG)”, the “recombinant barcode read abundance (log10)” value came out at 0.0741.

Regarding “ACACCACCTTGGGTTCTAACCTGTTGCCT (site AGACCACCTAG)”, the “recombinant barcode read abundance (log10)” value is 0.179.

Consider “ACACCACCTTGGGTTCTAACCTGTTGCCT (site ATACCACCTAG)”, for which the “recombinant barcode read abundance (log10)” value amounted to 0.0171.

In the case of “ACACGCCCTTGGGTTCTAACCTGTTGCAC (site ACACGCCCTGT)”, the “recombinant barcode read abundance (log10)” value was determined as 0.333.

“ACACGCCCTTGGGTTCTAACCTGTTGCAC (site AGACTCCCTGT)”: the “recombinant barcode read abundance (log10)” value came out at 0.0104.

“ACACGGCCTTGGGTTCTAACCTGTTGCCG (site ACACGGCCTCG)”: the “recombinant barcode read abundance (log10)” value was determined as 0.428.

In the case of “ACACGGCCTTGGGTTCTAACCTGTTGCCG (site TAGTACGCTAA)”, the “recombinant barcode read abundance (log10)” value is 0.145.

Turning to “ACACTAACTTGGGTTCTAACCTGTTGCCT (site AAACTAACTAG)”, the “recombinant barcode read abundance (log10)” value is 0.071.

With “ACACTAACTTGGGTTCTAACCTGTTGCCT (site ACACTAACTAG)”, the “recombinant barcode read abundance (log10)” value is 0.404.

“ACACTAACTTGGGTTCTAACCTGTTGCCT (site AGACTAACTAG)”: the “recombinant barcode read abundance (log10)” value came to 0.0933.

On to “ACACTAACTTGGGTTCTAACCTGTTGCCT (site ATACTAACTAG)”, for which the “recombinant barcode read abundance (log10)” value was determined as 0.

On to “ACACTGGCTTGGGTTCTAACCTGTTGCCT (site ACACTGGCTAG)”, for which the “recombinant barcode read abundance (log10)” value was 0.987.

With “ACACTGGCTTGGGTTCTAACCTGTTGCCT (site ACCCTGGCTAG)”, the “recombinant barcode read abundance (log10)” value is 0.0877.

As to “ACACTGGCTTGGGTTCTAACCTGTTGCCT (site ACGCTGGCTAG)”, the “recombinant barcode read abundance (log10)” value was found to be 0.025.

As to “ACACTGGCTTGGGTTCTAACCTGTTGCCT (site ACTCTGGCTAG)”, the “recombinant barcode read abundance (log10)” value was found to be 0.

For the sequence “ACAGAGACTTGGGTTCTAACCTGTTGCAC (site ACAGAGACTGT)”, the “recombinant barcode read abundance (log10)” value was determined as 1.76.

Consider “ACAGAGACTTGGGTTCTAACCTGTTGCAC (site ACAGAGACTTA)”, for which the “recombinant barcode read abundance (log10)” value is 0.183.

For the sequence “ACAGATTCTTGGGTTCTAACCTGTTGCCT (site ACAGATTCTAG)”, the “recombinant barcode read abundance (log10)” value came out at 1.73.

Consider “ACAGATTCTTGGGTTCTAACCTGTTGCCT (site ATAGAGTCTAG)”, for which the “recombinant barcode read abundance (log10)” value was 0.0143.

In the case of “ACAGGAGCTTGGGTTCTAACCTGTTGCGG (site ACACGACCTCC)”, the “recombinant barcode read abundance (log10)” value came to 0.154.

For “ACAGGAGCTTGGGTTCTAACCTGTTGCGG (site ACAGGAGCTCC)”, the “recombinant barcode read abundance (log10)” value came to 2.61.

In the case of “ACAGGATCTTGGGTTCTAACCTGTTGCTT (site ACAGAATCTAG)”, the “recombinant barcode read abundance (log10)” value worked out at 0.55.

“ACAGGATCTTGGGTTCTAACCTGTTGCTT (site ACAGGATCTAA)”: the “recombinant barcode read abundance (log10)” value was 2.18.

For the sequence “ACAGGTTCTTGGGTTCTAACCTGTTGCCT (site AAAGGTTCTAG)”, the “recombinant barcode read abundance (log10)” value turned out to be 0.0508.

On to “ACAGGTTCTTGGGTTCTAACCTGTTGCCT (site ACAGGTTCTAG)”, for which the “recombinant barcode read abundance (log10)” value was 2.24.

For “ACAGGTTCTTGGGTTCTAACCTGTTGCCT (site AGAGGTTCTAG)”, the “recombinant barcode read abundance (log10)” value stood at 0.283.

For “ACAGGTTCTTGGGTTCTAACCTGTTGCCT (site ATAGGTTCTAG)”, the “recombinant barcode read abundance (log10)” value worked out at 0.0396.

For “ACAGTAGCTTGGGTTCTAACCTGTTGCCG (site ACAGTAGCTCC)”, the “recombinant barcode read abundance (log10)” value came out at 0.189.

On to “ACAGTAGCTTGGGTTCTAACCTGTTGCCG (site ACAGTAGCTCG)”, for which the “recombinant barcode read abundance (log10)” value came to 0.862.

As for “ACATACACTTGGGTTCTAACCTGTTGCCT (site ACATACACTAG)”, the “recombinant barcode read abundance (log10)” value worked out at 0.991.

On to “ACATACACTTGGGTTCTAACCTGTTGCCT (site ACCTACCCTAG)”, for which the “recombinant barcode read abundance (log10)” value came to 0.298.

Consider “ACATCAACTTGGGTTCTAACCTGTTGCCT (site ACATCAACTAG)”, for which the “recombinant barcode read abundance (log10)” value amounted to 0.807.

Consider “ACATCAACTTGGGTTCTAACCTGTTGCCT (site ACCTCAACTAG)”, for which the “recombinant barcode read abundance (log10)” value is 0.0149.

Regarding “ACATCAACTTGGGTTCTAACCTGTTGCCT (site ACGTCAACTAG)”, the “recombinant barcode read abundance (log10)” value is 0.0953.

On to “ACATCAACTTGGGTTCTAACCTGTTGCCT (site ACTTCAACTAG)”, for which the “recombinant barcode read abundance (log10)” value was 0.0926.

In the case of “ACATCTACTTGGGTTCTAACCTGTTGCTA (site ACATCTACTTA)”, the “recombinant barcode read abundance (log10)” value came to 0.145.

As for “ACATCTACTTGGGTTCTAACCTGTTGCTA (site ACTTCTACTTA)”, the “recombinant barcode read abundance (log10)” value is 0.0475.

On to “ACATGGTCTTGGGTTCTAACCTGTTGCGT (site ACATGGTCTAC)”, for which the “recombinant barcode read abundance (log10)” value stood at 2.92.

With “ACATGGTCTTGGGTTCTAACCTGTTGCGT (site ACTGGGTCTAC)”, the “recombinant barcode read abundance (log10)” value stood at 0.115.

As for “ACATGTCCTTGGGTTCTAACCTGTTGCCT (site ACATGTCCTAA)”, the “recombinant barcode read abundance (log10)” value was 0.0846.

In the case of “ACATGTCCTTGGGTTCTAACCTGTTGCCT (site ACATGTCCTAC)”, the “recombinant barcode read abundance (log10)” value was determined as 0.0127.

“ACATGTCCTTGGGTTCTAACCTGTTGCCT (site ACATGTCCTAG)”: the “recombinant barcode read abundance (log10)” value is 0.828.

“ACATGTCCTTGGGTTCTAACCTGTTGCCT (site ACATGTCCTAT)”: the “recombinant barcode read abundance (log10)” value amounted to 0.00753.

On to “ACATGTCCTTGGGTTCTAACCTGTTGCTT (site ACATGTCCTAA)”, for which the “recombinant barcode read abundance (log10)” value is 0.333.

In the case of “ACATGTCCTTGGGTTCTAACCTGTTGCTT (site ACATGTCCTAC)”, the “recombinant barcode read abundance (log10)” value is 0.0155.

On to “ACATGTCCTTGGGTTCTAACCTGTTGCTT (site ACATGTCCTAG)”, for which the “recombinant barcode read abundance (log10)” value was found to be 0.136.

Turning to “ACATGTCCTTGGGTTCTAACCTGTTGCTT (site ACATGTCCTAT)”, the “recombinant barcode read abundance (log10)” value was 0.287.

On to “ACATGTGCTTGGGTTCTAACCTGTTGCCT (site ACAGGTGCTAG)”, for which the “recombinant barcode read abundance (log10)” value came out at 0.0246.

As to “ACATGTGCTTGGGTTCTAACCTGTTGCCT (site ACATGTGCTAG)”, the “recombinant barcode read abundance (log10)” value is 1.66.

As to “ACATTAGCTTGGGTTCTAACCTGTTGCTG (site ACAATAGCTCA)”, the “recombinant barcode read abundance (log10)” value amounted to 0.182.

“ACATTAGCTTGGGTTCTAACCTGTTGCTG (site ACACTAGCTCA)”: the “recombinant barcode read abundance (log10)” value came out at 0.0561.

As for “ACATTAGCTTGGGTTCTAACCTGTTGCTG (site ACAGTAGCTCA)”, the “recombinant barcode read abundance (log10)” value was 0.18.

For “ACATTAGCTTGGGTTCTAACCTGTTGCTG (site ACATTAGCTCA)”, the “recombinant barcode read abundance (log10)” value stood at 0.603.

In the case of “ACATTGTCTTGGGTTCTAACCTGTTGCGG (site ACAATGTCTCC)”, the “recombinant barcode read abundance (log10)” value came to 0.13.

As for “ACATTGTCTTGGGTTCTAACCTGTTGCGG (site ACACTGTCTCC)”, the “recombinant barcode read abundance (log10)” value is 0.236.

“ACATTGTCTTGGGTTCTAACCTGTTGCGG (site ACAGTGTCTCC)”: the “recombinant barcode read abundance (log10)” value came out at 0.00595.

“ACATTGTCTTGGGTTCTAACCTGTTGCGG (site ACATTGTCTCC)”: the “recombinant barcode read abundance (log10)” value was determined as 1.1.

Regarding “ACCAACACTTGGGTTCTAACCTGTTGCTT (site ACCAACACTAA)”, the “recombinant barcode read abundance (log10)” value came to 0.115.

Consider “ACCAACACTTGGGTTCTAACCTGTTGCTT (site TATTTAGCTCC)”, for which the “recombinant barcode read abundance (log10)” value stood at 0.259.
